Source: article PMC10615177 (ACS infectious diseases, 2023)
In brackets after ≈: the same amount, converted by molar mass. Several values for one entry are separate records, joined by “and”; a condition that tells them apart may be missing. Equal entries are not always repeated. Where two headings read alike, the source gives them in different places.

Experiments:
[1] = target: M. tuberculosis MmpL3 (MtMmpL3) (Mycobacterium tuberculosis, UniProt P9WJV5); assay: Surface plasmon resonance binding to MmpL3
[2] = system: T. cruzi Dm28c intracellular amastigotes; assay: T. cruzi intracellular amastigote inhibition; type: cell-based, Trypanosoma cruzi; settings: read-out: T. cruzi IC50 (PAR)
[3] = system: M. abscessus rough variant; assay: microbe, parasite or virus in culture; type: cell-based
[4] = system: M. tuberculosis Erdman; assay: M. tuberculosis Erdman growth inhibition; type: cell-based, Mycobacterium tuberculosis
[5] = in vitro; settings: human
[6] = system: T. cruzi Dm28c epimastigotes; assay: T. cruzi epimastigote growth inhibition; type: cell-based, Trypanosoma cruzi; settings: read-out: T. cruzi IC50 (EPI)
[7] = system: Bacillus subtilis; assay: B. subtilis growth inhibition; type: cell-based; settings: read-out: Bs IC50
[8] = system: M. tuberculosis HN878; assay: M. tuberculosis HN878 growth inhibition; type: cell-based, Mycobacterium tuberculosis; settings: for Mtb HN878 MIC: visual inspection
[9] = system: L. donovani promastigotes; assay: L. donovani promastigote growth inhibition; type: cell-based, Leishmania donovani; settings: read-out: L. donovani IC50
[10] = system: M. smegmatis; assay: M. smegmatis cell growth inhibition; type: cell-based, Mycobacterium smegmatis
[11] = system: M. abscessus smooth variant; assay: microbe, parasite or virus in culture; type: cell-based
[12] = system: Plasmodium falciparum asexual blood stages; assay: P. falciparum asexual blood stage; type: cell-based
[13] = system: T. brucei bloodstream forms; assay: T. brucei bloodstream form growth inhibition; type: cell-based, Trypanosoma brucei; settings: read-out: T. brucei IC50
[14] = in vitro; settings: human; remark: listed apart in the source
[15] = DSC of DSPG bilayers with inhibitor; type: physicochemical; settings: for Tm (main transition) / ΔH / ΔT1/2: 10 wt % inhibitor, PBS pH 7.4, heating; for Broadening of main transition peak ΔΤ1/2 compared to pure DSPG / Decrease of Tm compared to DSPG alone: heating
[16] = DSC of DMPC bilayers with inhibitor; type: physicochemical; settings: for Tm (main transition) / ΔH / ΔT1/2: 10 wt % inhibitor, PBS pH 7.4, heating
[17] = system: E. coli; assay: E. coli growth inhibition; type: cell-based, Escherichia coli; settings: read-out: Ec IC50
[18] = system: M. tuberculosis H37Rv; assay: M. tuberculosis H37Rv growth inhibition; type: cell-based, Mycobacterium tuberculosis
[19] = system: HepG2 (human hepatocellular carcinoma) cells; assay: HepG2 cell line viability; settings: 20 μM
[20] = system: U2OS host cells; assay: U2OS host cell growth inhibition; settings: read-out: T. cruzi CC50 (U20S)
[21] = system: L. mexicana promastigotes; assay: L. mexicana promastigote growth inhibition; type: cell-based, Leishmania mexicana; settings: for IC50: read-out: L. mexicana IC50, promastigotes
[22] = read-out: Mtb HN878 IC50, dose-response curves
[23] = read-out: KD, 1:1 model, 1:1 binding model, from ratio of rate constants
[24] = read-out: KD, 2-state, two-state model, from rate constants
[25] = intracellular amastigotes in U2OS host cells
[26] = read-out: Ms IC50, M. smegmatis
[27] = read-out: PfABS IC50 (μM ± S.E.), asexual blood stages

Sequence of M. tuberculosis MmpL3 (MtMmpL3) (P9WJV5 whole entry): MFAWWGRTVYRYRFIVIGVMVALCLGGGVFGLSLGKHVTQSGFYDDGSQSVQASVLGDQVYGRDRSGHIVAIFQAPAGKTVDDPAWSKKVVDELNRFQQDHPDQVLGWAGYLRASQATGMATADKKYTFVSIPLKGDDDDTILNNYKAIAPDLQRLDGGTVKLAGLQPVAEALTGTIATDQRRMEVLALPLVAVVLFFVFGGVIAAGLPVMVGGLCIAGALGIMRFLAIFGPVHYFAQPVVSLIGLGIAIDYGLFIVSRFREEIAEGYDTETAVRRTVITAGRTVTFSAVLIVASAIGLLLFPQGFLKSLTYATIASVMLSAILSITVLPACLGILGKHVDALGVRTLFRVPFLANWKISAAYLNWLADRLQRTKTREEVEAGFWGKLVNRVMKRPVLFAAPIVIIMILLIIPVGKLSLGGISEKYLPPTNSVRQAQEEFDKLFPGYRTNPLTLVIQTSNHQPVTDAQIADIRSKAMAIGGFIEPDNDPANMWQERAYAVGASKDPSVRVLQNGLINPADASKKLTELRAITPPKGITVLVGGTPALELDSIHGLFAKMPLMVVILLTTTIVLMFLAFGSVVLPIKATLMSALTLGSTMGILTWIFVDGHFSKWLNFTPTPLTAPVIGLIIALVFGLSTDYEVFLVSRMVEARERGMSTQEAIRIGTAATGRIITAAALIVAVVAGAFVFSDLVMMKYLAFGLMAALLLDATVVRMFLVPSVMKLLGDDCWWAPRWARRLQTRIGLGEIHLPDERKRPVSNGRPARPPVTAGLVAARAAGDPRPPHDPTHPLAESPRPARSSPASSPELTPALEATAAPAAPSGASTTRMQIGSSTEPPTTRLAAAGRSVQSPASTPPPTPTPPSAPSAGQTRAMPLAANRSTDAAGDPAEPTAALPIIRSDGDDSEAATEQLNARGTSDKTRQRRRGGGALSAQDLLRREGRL

CCC1(NCCNCC=C(C)CCC=C(C)C)C2CC3CC(C2)CC1C3 (centres unmarked) [Compound 8c, N-(3,7-dimethylocta-2,6-dien-1-yl)-N′-(2-ethyladamantan-2-yl)ethane-1,2-diamine]
koff [1]: 0.841 s⁻¹
kon [1]: 4710 M⁻¹ s⁻¹
Kd ([1]; KD, 1:1 model, 1:1 binding model, from ratio of rate constants): 180 µM
Kd ([1]; KD, 2-state, two-state model, from rate constants): 190 µM
ka1 ([1]; two-state model): 5473 M⁻¹ s⁻¹
ka2 ([1]; two-state model): 0.006994 s⁻¹
kd1 ([1]; two-state model): 1.284 s⁻¹
kd2 ([1]; two-state model): 0.03012 s⁻¹
IC50 ([2]; Trypanosoma cruzi, U2OS): 1.3 ± 0.06 µM
MIC ([3]; Mycobacteroides abscessus, read-out: Ma(R) MIC): 10.7 µM (≈ 3.84 µg/mL)
MIC ([4]; Mycobacterium tuberculosis, ERDMAN, read-out: Mtb Erdman MIC): 6.8 µM (≈ 2.44 µg/mL)
viability at 2 µM [5]: 85%
viability at 20 µM [5]: 43%
IC50 ([6]; Trypanosoma cruzi): 8 ± 2 µM
IC50 ([7]; Bacillus subtilis): 4.3 µM
IC50 ([8]; Mycobacterium tuberculosis, HN878, read-out: Mtb HN878 IC50, dose-response curves): 2 to 3 µM
MIC ([8]; Mycobacterium tuberculosis, HN878, read-out: Mtb HN878 MIC): 1.6 µM (≈ 0.574 µg/mL)
IC50 [8, 22]: 1.9 ± 0.06 µM
IC50 ([9]; Leishmania donovani): 2.1 ± 0.4 µM
IC50 ([10]; Mycolicibacterium smegmatis, read-out: Ms IC50, M. smegmatis): 4 µM
MIC ([11]; Mycobacteroides abscessus, read-out: Ma(S) MIC): 22 µM (≈ 7.89 µg/mL)
IC50 ([12]; Plasmodium falciparum, read-out: PfABS IC50 (μM ± S.E.), asexual blood stages): 0.16 ± 0.07 µM
Increased potency against PfABS compared to SQ109 ([12]; versus SQ109 1.6 μM): ~ 10 fold
IC50 ([13]; Trypanosoma brucei): 1.4 ± 0.2 µM
CC50 [14]: 2.5 ± 0.3 µM
Tm (main transition) [15]: 51.9 °C
ΔH [15]: 11.9 kcal/mol
ΔT1/2 [15]: 2.5 °C
Broadening of main transition peak ΔΤ1/2 compared to pure DSPG [15]: 0.2–1.6 °C
Tm (main transition) [16]: 16.9 °C
ΔH [16]: 5.74 kcal/mol
ΔT1/2 [16]: 2.0 °C
Decrease of Tm compared to DMPC without inhibitor ([16]; heating): ~6.6 °C
IC50 ([17]; Escherichia coli): 18 µM
MIC ([18]; Mycobacterium tuberculosis, H37RV, read-out: Mtb H37Rv MIC): 6.8 µM (≈ 2.44 µg/mL)

CCCC1(NCCNCC=C(C)CCC=C(C)C)C2CC3CC(C2)CC1C3 (centres unmarked) [Compound 8d, N-(3,7-dimethylocta-2,6-dien-1-yl)-N´-(2-propyladamantan-2-yl)ethane-1,2-diamine]
koff ([1]; 1:1 Langmuir binding model): 0.5403 s⁻¹
Kd [1, 23]: 91 µM
Kd [1, 24]: 106 µM
ka1 ([1]; two-state model): 7325 M⁻¹ s⁻¹
ka2 ([1]; two-state model): 0.00968 s⁻¹
kd1 ([1]; two-state model): 0.9488 s⁻¹
kd2 ([1]; two-state model): 0.04246 s⁻¹
IC50 [2, 25]: 0.6 ± 0.5 µM
Ma(R) MIC [3]: 10 µM
Mtb Erdman MIC [4]: 13 µM
IC50 ([6]; epimastigotes): 2.1 ± 0.9 µM
IC50 [8, 22]: 2.6 ± 1 µM
Mtb HN878 MIC [8]: 3 µM
IC50 ([9]; promastigotes): 2 ± 0.2 µM
IC50 [10, 26]: 4.3 ± 0.8 µM
Ma(S) MIC [11]: 10 µM
IC50 [12, 27]: 0.53 ± 0.22 µM
IC50 ([13]; bloodstream forms): 0.88 ± 0.2 µM
HepG2 % viability @ 20 μM [19]: 100%
Tm (main transition) [15]: 50.0 °C
ΔH [15]: 11.5 kcal/mol
ΔT1/2 [15]: 1.1 °C
Broadening of main transition peak ΔΤ1/2 compared to pure DSPG [15]: 0.2–1.6 °C
Decrease of Tm compared to DSPG alone [15]: 3–4 °C
Tm (main transition) [16]: 17.5 °C
ΔH [16]: 5.4 kcal/mol
ΔT1/2 [16]: 2.2 °C
Decrease of Tm compared to DMPC without inhibitor ([16]; heating): ~6 °C
IC50 [17]: 7.6 µM
Mtb H37Rv MIC [18]: 13 µM
CC50 [20]: 1.6 ± 0.1 µM
Less active than 8b/SQ109, L. mexicana [21]: ~ 4 fold
IC50 [21]: 1.94 µM and 1.9 µM

CCCCCCC1(NCCNCC=C(C)CCC=C(C)C)C2CC3CC(C2)CC1C3 (centres unmarked) [Compound 8f, N-(3,7-dimethylocta-2,6-dien-1-yl)-N´-(2-hexyladamantan-2-yl)ethane-1,2-diamine]
koff ([1]; 1:1 Langmuir binding model): 0.2964 s⁻¹
Kd [1, 23]: 67 µM
Kd [1, 24]: 81 µM
ka1 ([1]; two-state model): 4642 M⁻¹ s⁻¹
ka2 ([1]; two-state model): 0.008637 s⁻¹
kd1 ([1]; two-state model): 0.4552 s⁻¹
kd2 ([1]; two-state model): 0.03992 s⁻¹
IC50 [2, 25]: 1.3 ± 0.07 µM
Ma(R) MIC [3]: 12 µM
Mtb Erdman MIC [4]: 12 µM
IC50 ([6]; epimastigotes): 8.2 ± 0.4 µM
IC50 [7]: 1 µM
IC50 [8, 22]: 3.4 ± 0.6 µM
Mtb HN878 MIC [8]: 3 µM
IC50 ([9]; promastigotes): 8.8 ± 0.4 µM
IC50 [10, 26]: 4.7 µM
Ma(S) MIC [11]: 12 µM
IC50 ([13]; bloodstream forms): 0.98 ± 0.09 µM
Tm (main transition) [15]: 49.1 °C
ΔH [15]: 8.75 kcal/mol
ΔT1/2 [15]: 1.7 °C
Broadening of main transition peak ΔΤ1/2 compared to pure DSPG [15]: 0.2–1.6 °C
Decrease of Tm compared to DSPG alone [15]: ~ 5 °C
Tm (main transition) [16]: 13.8 °C
ΔH [16]: 5.88 kcal/mol
ΔT1/2 [16]: 5.1 °C
Broadening of main transition peak ΔΤ1/2 compared to pure DMPC ([16]; heating): 4.4 °C
Decrease of Tm compared to DMPC without inhibitor ([16]; heating): ~9.7 °C
IC50 [17]: 9.2 µM
Mtb H37Rv MIC [18]: 12 µM
CC50 [20]: 4.1 ± 1 µM

CC(C)=CCCC(C)=CCNCCNC(C)(C)C12CC3CC(CC(C3)C1)C2 [Compound 12, N-(3,7-dimethylocta-2,6-dien-1-yl)-N´-(2-(adamantan-1-yl)propan-2-yl)ethane-1,2-diamine]
koff ([1]; 1:1 Langmuir binding model): 0.6646 s⁻¹
Kd [1, 23]: 106 µM
Kd [1, 24]: 120 µM
ka1 ([1]; two-state model): 7245 M⁻¹ s⁻¹
ka2 ([1]; two-state model): 0.007539 s⁻¹
kd1 ([1]; two-state model): 1.05 s⁻¹
kd2 ([1]; two-state model): 0.03558 s⁻¹
IC50 [2, 25]: 0.56 ± 0.9 µM
Ma(R) MIC [3]: 12.9 µM
Mtb Erdman MIC [4]: 13 µM
IC50 ([6]; epimastigotes): 2.4 ± 0.7 µM
IC50 [8, 22]: 3.4 ± 0.6 µM
Mtb HN878 MIC [8]: 3 µM
IC50 ([9]; promastigotes): 2.3 ± 0.1 µM
IC50 [10, 26]: 15 ± 2 µM
Ma(S) MIC [11]: 12.9 µM
IC50 [12, 27]: 0.77 ± 0.1 µM
IC50 ([13]; bloodstream forms): 1.4 ± 0.03 µM
HepG2 % viability @ 20 μM [19]: 100%
Tm (main transition) [15]: 49.8 °C
ΔH [15]: 13.3 kcal/mol
ΔT1/2 [15]: 2.4 °C
Broadening of main transition peak ΔΤ1/2 compared to pure DSPG [15]: 0.2–1.6 °C
Decrease of Tm compared to DSPG alone [15]: 3–4 °C
Tm (main transition) [16]: 19.8 °C
ΔH [16]: 4.25 kcal/mol
ΔT1/2 [16]: 4.1 °C
Decrease of Tm compared to DMPC without inhibitor ([16]; heating): 3–4 °C
IC50 [17]: 8.9 µM
Mtb H37Rv MIC [18]: 13 µM
CC50 [20]: 1.4 ± 0.2 µM
IC50 [21]: 4.7 ± 0.2 µM
